Each structure is given as a SMILES string. Read-outs that look alike come from different tables or passages of the source.

What is called IC50 is the midpoint of a concentration-inhibition curve.

One test has as its system PC-3 cells. The test is described as follows: Cell Proliferation Assay (Cell Titer Glo), PC-3 cell line. It counts as cell-based. To be noted: Homo sapiens. In short, it runs like this:
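PC-3 cells, 1000 cells/well, left to adhere 3-5 h, then exposed for 3 days at 37° C to compounds as 1:3 serial dilutions from 500× DMSO stocks diluted in growth medium. Medium then replaced with fresh medium and viability read by Cell Titer Glo luminescence.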
(In general: Cellular ATP, detected with luciferase, serves as a proxy for viable cell number.)

In a further test the test system is A2780 cells. Description: Cell Proliferation Assay (Cell Titer Glo), A2780. It counts as cell-based. To be noted: Homo sapiens, read-out: CPEC50 A2780. The gist of the method: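 Cells seeded at 1000/well, allowed to adhere 3-5 h, then exposed to DMSO-dissolved compounds for 3 days at 37° C., 5% CO2. Medium replaced before Cell Titer Glo addition; luminescence read after 10 min.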

The target of the next test is T1, PDK1 kinase (Homo sapiens, UniProt O15530).
T1 sequence (O15530 1-556): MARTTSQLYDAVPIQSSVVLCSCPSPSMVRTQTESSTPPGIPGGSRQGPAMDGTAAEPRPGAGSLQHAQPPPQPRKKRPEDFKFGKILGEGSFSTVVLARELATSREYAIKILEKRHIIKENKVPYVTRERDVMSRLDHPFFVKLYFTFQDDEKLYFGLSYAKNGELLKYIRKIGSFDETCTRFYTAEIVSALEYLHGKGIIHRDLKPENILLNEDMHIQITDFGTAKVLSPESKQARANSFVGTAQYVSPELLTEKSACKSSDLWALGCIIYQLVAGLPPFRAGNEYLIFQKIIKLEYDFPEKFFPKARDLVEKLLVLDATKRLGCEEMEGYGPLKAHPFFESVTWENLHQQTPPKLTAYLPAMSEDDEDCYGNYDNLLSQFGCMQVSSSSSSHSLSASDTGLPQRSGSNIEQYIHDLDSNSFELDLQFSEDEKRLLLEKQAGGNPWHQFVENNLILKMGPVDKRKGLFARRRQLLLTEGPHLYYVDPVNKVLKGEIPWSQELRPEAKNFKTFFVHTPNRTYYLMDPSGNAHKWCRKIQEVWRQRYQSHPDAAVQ
The test is described as follows: PDK1 Kinase Alpha Screen Assay. Type of test: biochemical. To be noted: read-out: PDK1 IC50. The gist of the method: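 PDK1 phosphorylated 50 nM biotinylated PDK1-4 peptide with 10 uM ATP in Tris pH 7.5, 10 mM MgCl2, 2 mM DTT, 2.5% DMSO for 3-18 hours. After EDTA stop, phosphopeptide was detected by AlphaScreen using phospho-(Ser/Thr) PKA substrate antibody with protein A/streptavidin beads, read after overnight incubation.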

[1] abbreviates: PC-3, Cell Proliferation Assay, PC3, read-out: CPEC50 PC3.
Setting [2] is: Cell Proliferation Assay, A2780.
Setting [3] is: PC-3, cell proliferation, PC3 cells, read-out: CPEC50 PC3.
[4] abbreviates: cell proliferation, A2780 cells.

With `CC(C)N1CCC(Oc2ccc3cnc(Nc4ccc(S(=O)(=O)N5CCOCC5)cc4)nc3c2)CC1` [Compound 54, [7-(1-Isopropyl-piperidin-4-yloxy)-quinazolin-2-yl]-[4-(morpholine-4-sulfonyl)-phenyl]-amine], the EC50 with PC-3 cells (PC-3, 72 h, PC-3 cells, 3 days incubation, read-out: CP EC50 PC3) is under 5 µM; in the test on A2780 cells (72 h, A2780 cells, 3 days incubation) it was under 5 µM. At PDK1 kinase, the IC50 was under 5 µM.

Consider `Cc1ccc(OC2CCNCC2)c2nc(Nc3ccc(C(=O)NC4CC4)cc3)ncc12` [Compound 364, N-cyclopropyl-4-(5-methyl-8-(piperidin-4-yloxy)quinazolin-2-ylamino)benzamide], for which the EC50 with PC-3 cells (setting [1]) and in the test on A2780 cells (setting [2]) was under 5 µM throughout. In addition, the IC50 at PDK1 kinase (PDK1 Kinase Alpha Screen Assay) was under 5 µM.

`NS(=O)(=O)c1ccc(Nc2ncc3cccc(Oc4ccccc4)c3n2)cc1` [Compound 405, 4-(8-phenoxyquinazolin-2-ylamino)benzenesulfonamide]: the EC50 with PC-3 cells (setting [1]) and in the test with A2780 cells (setting [2]) was under 5 µM throughout. Moreover, the concentration for half-maximal inhibition (IC50) on PDK1 kinase (PDK1 Kinase Alpha Screen Assay) was under 5 µM.

Turning to `NS(=O)(=O)c1ccc(Nc2ncc3cccc(OCC4CCNCC4)c3n2)cc1` [Compound 509, 4-(8-(piperidin-4-ylmethoxy)quinazolin-2-ylamino)benzenesulfonamide], the EC50 in the test on PC-3 cells (setting [1]) and in the test on A2780 cells (setting [2]) was under 5 µM each time. Besides, the half-maximal inhibitory concentration (IC50) on PDK1 kinase (PDK1 Kinase Alpha Screen Assay) is under 5 µM.

Consider `CC(C)Oc1cccc2cnc(Nc3ccc(S(N)(=O)=O)cc3)nc12` [Compound 511, 4-(8-isopropoxyquinazolin-2-ylamino)benzenesulfonamide], for which the EC50 with PC-3 cells (setting [1]) and in the test with A2780 cells (setting [2]) was under 5 µM in each case. The IC50 on PDK1 kinase (PDK1 Kinase Alpha Screen Assay) was under 5 µM.

Regarding `NS(=O)(=O)c1ccc(Nc2ncc3cccc(OC4CCCC4)c3n2)cc1` [Compound 512, 4-(8-(cyclopentyloxy)quinazolin-2-ylamino)benzenesulfonamide], the EC50 in the test on PC-3 cells (setting [1]) and in the test on A2780 cells (setting [2]) was under 5 µM each time. In addition, the 50% inhibitory concentration (IC50) at PDK1 kinase (PDK1 Kinase Alpha Screen Assay) was under 5 µM.

For `CC(C)N1CCC(COc2cccc3cnc(Nc4ccc(S(N)(=O)=O)cc4)nc23)CC1` [Compound 519, 4-(8-((1-isopropylpiperidin-4-yl)methoxy)quinazolin-2-ylamino)benzenesulfonamide], the EC50 with PC-3 cells (setting [1]) and with A2780 cells (setting [2]) was under 5 µM in each case. Besides, on PDK1 kinase (PDK1 Kinase Alpha Screen Assay), the IC50 was under 5 µM.

For `CC(C)Oc1cccc2cnc(Nc3ccc(C(N)=O)cn3)nc12` [Compound 520, 6-(8-isopropoxyquinazolin-2-ylamino)nicotinamide], the EC50 in the test on PC-3 cells (setting [1]) is under 5 µM; with A2780 cells (setting [2]) it was 5 to 10 µM.

As for `CC(C)Oc1cccc2cnc(Nc3ccccn3)nc12` [Compound 521, 8-isopropoxy-N-(pyridin-2-yl)quinazolin-2-amine], the EC50 with PC-3 cells (setting [1]) was under 5 µM; in the test with A2780 cells (setting [2]), 5 to 10 µM.

`c1csc(-c2cc3cnc(Nc4ccc(N5CCOCC5)cc4)nc3cc2OC2CCNCC2)n1` [Compound 645, N-(4-morpholinophenyl)-7-(piperidin-4-yloxy)-6-(thiazol-2-yl)quinazolin-2-amine]: the EC50 with PC-3 cells (setting [1]) and in the test on A2780 cells (setting [2]) was under 5 µM each time. For the same compound, the half-maximal inhibitory concentration (IC50) at PDK1 kinase (PDK1 Kinase Alpha Screen Assay) was under 5 µM.

Consider `C#Cc1cc2cnc(Nc3ccc(N4CCOCC4)cc3)nc2cc1OC1CCNCC1` [Compound 646, 6-Ethynyl-N-(4-morpholinophenyl)-7-(piperidin-4-yloxy)quinazolin-2-amine], for which the EC50 in the test with PC-3 cells (setting [1]) and in the test with A2780 cells (setting [2]) was under 5 µM throughout. For the same compound, on PDK1 kinase (PDK1 Kinase Alpha Screen Assay), the half-maximal inhibitory concentration (IC50) is under 5 µM.

`Cc1cc2cnc(Nc3ccc(N4CCOCC4)cc3)nc2cc1OC1CCNCC1` [Compound 647, 6-methyl-N-(4-morpholinophenyl)-7-(piperidin-4-yloxy)quinazolin-2-amine]: the EC50 in the test on PC-3 cells (setting [1]) and in the test with A2780 cells (setting [2]) was under 5 µM throughout. The IC50 on PDK1 kinase (PDK1 Kinase Alpha Screen Assay) was under 5 µM.

For `Cc1cc2cnc(Nc3ccc(C(=O)N4CCOCC4)cc3)nc2cc1OC1CCNCC1` [Compound 648, (4-(6-methyl-7-(piperidin-4-yloxy)quinazolin-2-ylamino)phenyl)(morpholino)methanone], the EC50 in the test with PC-3 cells (setting [1]) and in the test on A2780 cells (setting [2]) was under 5 µM throughout. The IC50 on PDK1 kinase (PDK1 Kinase Alpha Screen Assay) is under 5 µM.

Take `O=C(c1ccc(Nc2ncc3cc(-c4nccs4)c(OC4CCNCC4)cc3n2)cc1)N1CCOCC1` [Compound 649, morpholino(4-(7-(piperidin-4-yloxy)-6-(thiazol-2-yl)quinazolin-2-ylamino)phenyl)methanone]: the EC50 in the test on PC-3 cells (setting [1]) and in the test on A2780 cells (setting [2]) was under 5 µM throughout. For the same compound, the IC50 on PDK1 kinase (PDK1 Kinase Alpha Screen Assay) was under 5 µM.

`CN1CCC(Oc2ccc3cnc(Nc4ccc(S(=O)(=O)N5CCOCC5)cc4)nc3c2)CC1` [Compound 869, 7-(1-methylpiperidin-4-yloxy)-N-(4-(morpholinosulfonyl)phenyl)quinazolin-2-amine]: the EC50 in the test with PC-3 cells (setting [3]) and with A2780 cells (setting [4]) was under 5 µM in each case. Moreover, on PDK1 kinase (PDK1 Kinase Alpha Screen Assay), the 50% inhibitory concentration (IC50) is under 5 µM.

Take `NS(=O)(=O)c1ccc(Nc2ncc3cc(F)cc(-c4ccc5c(c4)CCNC5=O)c3n2)cc1` [Compound 884, 4-(6-fluoro-8-(1-oxo-1,2,3,4-tetrahydroisoquinolin-6-yl)quinazolin-2-ylamino)benzenesulfonamide]: the EC50 in the test on PC-3 cells (setting [3]) and with A2780 cells (setting [4]) was under 5 µM in each case. For the same compound, the IC50 at PDK1 kinase (PDK1 Kinase Alpha Screen Assay) was under 5 µM.

As for `Nc1ccc(-c2cc(F)cc3cnc(Nc4ccc(S(N)(=O)=O)cc4)nc23)cn1` [Compound 885, 4-(8-(6-aminopyridin-3-yl)-6-fluoroquinazolin-2-ylamino)benzenesulfonamide], the EC50 with PC-3 cells (setting [3]) and in the test with A2780 cells (setting [4]) was under 5 µM in each case. Moreover, the concentration for half-maximal inhibition (IC50) on PDK1 kinase (PDK1 Kinase Alpha Screen Assay) was under 5 µM.

Consider `CN1CCN(c2ccc(-c3cc(F)cc4cnc(Nc5ccc(S(N)(=O)=O)cc5)nc34)cn2)CC1` [Compound 888, 4-(6-fluoro-8-(6-(4-methylpiperazin-1-yl)pyridin-3-yl)quinazolin-2-ylamino)benzenesulfonamide], for which the EC50 with PC-3 cells (setting [3]) and in the test on A2780 cells (setting [4]) was under 5 µM each time. Further, the IC50 on PDK1 kinase (PDK1 Kinase Alpha Screen Assay) is under 5 µM.

Turning to `CCN(CC)Cc1cccc2cnc(Nc3ccc(S(N)(=O)=O)cc3)nc12` [Compound 916, 4-(8-((diethylamino)methyl)quinazolin-2-ylamino)benzenesulfonamide], the EC50 in the test with A2780 cells (A2780 cells) is under 5 µM. Moreover, the 50% inhibitory concentration (IC50) at PDK1 kinase is under 5 µM.

`NS(=O)(=O)c1ccc(Nc2ncc3cccc(CNCc4cccnc4)c3n2)cc1` [Compound 917, 4-(8-((pyridin-3-ylmethylamino)methyl)quinazolin-2-ylamino)benzenesulfonamide]: in the test on A2780 cells (A2780 cells), the EC50 was under 5 µM. Besides, on PDK1 kinase, the IC50 is under 5 µM.

On to `NS(=O)(=O)c1ccc(Nc2ncc3cccc(CNCCc4cnc[nH]4)c3n2)cc1` [Compound 918, 4-(8-((2-(1H-imidazol-5-yl)ethylamino)methyl)quinazolin-2-ylamino)benzenesulfonamide], for which, in the test on A2780 cells (A2780 cells), the EC50 lay within 5 to 10 µM. Moreover, the 50% inhibitory concentration (IC50) at PDK1 kinase was under 5 µM.

Regarding `NC(=O)C1CCN(Cc2cccc3cnc(Nc4ccc(S(N)(=O)=O)cc4)nc23)CC1` [Compound 919, 1-((2-(4-sulfamoylphenylamino)quinazolin-8-yl)methyl)piperidine-4-carboxamide], in the test with A2780 cells (A2780 cells), the EC50 lay within 5 to 10 µM. Moreover, the 50% inhibitory concentration (IC50) on PDK1 kinase is under 5 µM.

For the compound `NS(=O)(=O)c1ccc(Nc2ncc3cccc(CNC4CCOCC4)c3n2)cc1` [Compound 920], the EC50 in the test with A2780 cells (A2780 cells) is under 5 µM. Also, the IC50 on PDK1 kinase was under 5 µM.

Turning to `NS(=O)(=O)c1ccc(Nc2ncc3cccc(CNC4CCCCC4)c3n2)cc1` [Compound 921, 4-(8-((cyclohexylamino)methyl)quinazolin-2-ylamino)benzenesulfonamide], the EC50 in the test with A2780 cells (A2780 cells) was under 5 µM. Also, the half-inhibitory concentration (IC50) at PDK1 kinase is under 5 µM.

Regarding `NS(=O)(=O)c1ccc(Nc2ncc3cccc(CNCC4CCCO4)c3n2)cc1` (stereo not shown) [Compound 922, 4-(8-(((tetrahydrofuran-2-yl)methylamino)methyl)quinazolin-2-ylamino)benzenesulfonamide], in the test on A2780 cells (A2780 cells), the EC50 was under 5 µM. For the same compound, at PDK1 kinase, the IC50 was under 5 µM.

As to `NS(=O)(=O)c1ccc(Nc2ncc3cccc(CN4CCc5ccccc5C4)c3n2)cc1` [Compound 923, 4-(8-((3,4-dihydroisoquinolin-2(1H)-yl)methyl)quinazolin-2-ylamino)benzenesulfonamide], in the test with A2780 cells (A2780 cells), the EC50 was under 5 µM. Moreover, the IC50 at PDK1 kinase was under 5 µM.

Take `CC(=O)N1CCN(Cc2cccc3cnc(Nc4ccc(S(N)(=O)=O)cc4)nc23)CC1` [Compound 924, 4-(8-((4-acetylpiperazin-1-yl)methyl)quinazolin-2-ylamino)benzenesulfonamide]: in the test on A2780 cells (A2780 cells), the EC50 was under 5 µM. In addition, the half-inhibitory concentration (IC50) at PDK1 kinase was under 5 µM.

The values are drawn from patent US7932262B2 (Novartis AG, priority 2006, dated 2011).
